These results are taken from PMC3740496, “Synthesis and biological activities of the respiratory chain inhibitor aurachin D and new ring versus chain analogues” (Beilstein Journal of Organic Chemistry, 2013).

Holding throughout (type): cell-based
In experiment [1] the test system is HCT-116 human colon carcinoma cells. Nature of the experiment: Cytotoxicity, growth inhibition (MTT). The note with it: Homo sapiens, HCT-116, 120 h, read-out: IC50: half inhibitory concentration, HCT-116. How it is done:
(§1) The cytotoxic activity of aurachin D (4) and analogues 9–11 and 17–19 was evaluated in growth inhibition experiments on mammalian cell lines (Table 2). After 5 days treatment, half inhibitory concentrations (IC50) were determined for human HCT-116 colon carcinoma and human K562 myelogenous leukemia cells. […]
(§2) was further incubated for 1.5 h. The medium was then discarded and 100 µL 2-propanol/10 N HCl (250:1) was added in order to dissolve formazan granules. The absorbance at 570 nm was measured using a microplate reader (EL808, Bio-Tek Instruments Inc.) and cell viability was expressed as a percentage relative to the respective solvent control. […]

The subject of experiment [2] is Trypanosoma brucei gambiense strain Feo bloodstream forms. In words: Antitrypanosomal assay (resazurin). The settings on record: for IC50: Trypanosoma brucei, GAMBIENSE, 72 h incubation, read-out: IC50 T. brucei gambiense. How it is done: page 10: independent experiments. Chloroquine diphosphate (Sigma–Aldrich) was used as antimalarial drug control. Antitrypanosomal activities: Bloodstream forms of Trypanosoma brucei gambiense strain Feo were cultured in HMI9 medium supplemented with 10% FCS at 37 °C under an atmosphere of 5% CO2. Antitrypanosomal assays were performed as previously described. In all experiments, log-phage cell cultures were harvested by centrifugation at 3,000g and immediately used. Drug assays were based on the conversion of a redox-sensitive dye (resazurin) to a fluorescent product by viable cells. Drug stock solutions were prepared in pure DMSO. […] After a 72 h incubation, resazurin solution was added in each well at the final concentration of 45 µM. Fluorescence was measured at 530 nm excitation and 590 nm emission wavelengths after a further 4 h incubation. Each inhibitor concentration was tested in triplicate. The percentage of inhibition of parasite growth rate was calculated by comparing the fluorescence of parasites maintained in the presence of drug to that in the absence of drug. DMSO was used as a control. IC50s were determined from the dose–response curves with drug concentrations ranging from 100 µM to 50 nM. Pentamidine was used as antitrypanosomal drug control. MIC determination: Indicator strains were obtained from the German Collection of Microorganisms and Cell Cultures (Deutsche Sammlung für Mikroorganismen und Zellkulturen, DSMZ) or were part of our internal strain collection. All microorganisms were handled under standard conditions recommended by the depositor. Overnight S10
A general note: Alamar Blue is a resazurin reagent that responds to reducing activity.

The subject of experiment [3] is Plasmodium falciparum FcB1 (chloroquine-resistant). In words: In vitro antiplasmodial assay ([3H]-hypoxanthine incorporation). The note with it: for IC50: Plasmodium falciparum, FCB1, triplicate (except compound 24), mean ±SD, read-out: IC50 P. falciparum FcB1; for antiplasmodial selectivity index: Vero cytotoxic concentration / concentration active on P. falciparum FcB1. How it is done:
In vitro antiplasmodial assays: The chloroquine-resistant strain FcB1/Colombia of Plasmodium falciparum was maintained in vitro on human erythrocytes in RPMI 1640 medium supplemented by 8% (v/v) heat-inactivated human serum, at 37 °C, under an atmosphere of 3% CO2, 6% O2, and 91% N2. In vitro drug susceptibility assays was measured by [3H]-hypoxanthine incorporation as described. Drugs were prepared in DMSO at a 10 mg/mL concentration. Compounds were serially diluted two-fold with 100 µL culture medium in 96-well plates. Asynchronous parasite cultures (100 µL, 1% parasitaemia and 1% final hematocrite) were then added to each well and incubated for 24 h at 37 °C prior to the addition of 0.5 µCi of [3H]- hypoxanthine (GE Healthcare, France, 1 to 5 Ci·mmol/mL) per well. After a further incubation of 24 h, plates were frozen and thawed. Cell lysates were then collected onto glass-fiber filters and counted in a liquid scintillation spectrometer. The growth inhibition for each drug concentration was determined by comparison of the radioactivity incorporated in the treated culture with that in the control culture maintained on the same plate. The concentration causing 50% growth inhibition (IC50) was obtained from the drug concentration–response curve and the results were expressed as the mean values ± standard deviations determined from several […]
independent experiments. Chloroquine diphosphate (Sigma–Aldrich) was used as antimalarial drug control. […]

The test system of experiment [4] is K562 myelogenous leukemia cells. Nature of the experiment: Cytotoxicity, growth inhibition (MTT). The settings on record: Homo sapiens, K562, 120 h; 5 days treatment; triplicate, mean ±SD; read-out: IC50: half inhibitory concentration, K562. How it is done: as §1, §2

The structures appear in SMILES notation. ≈ marks a conversion by molar mass, not a printed value. Some results are limits rather than exact numbers.

Consider `CC(C)=CCC/C(C)=C/CC/C(C)=C/Cc1c(C)[nH]c2ccccc2c1=O` [compound 4, aurachin D], for which the IC50 was determined as 2.23 ± 0.76 µg/mL (≈ 6.13 µM) in experiment [1], 0.4 µg/mL (≈ 1.1 µM) in experiment [2], 0.04 ± 0.02 µg/mL (≈ 0.11 µM) in experiment [3] and 0.65 ± 0.16 µg/mL (≈ 1.79 µM) in experiment [4]. Further, the antitrypanosomal selectivity index in experiment [2] (Vero cytotoxic concentration / concentration active on T. brucei gambiense) is 35. In experiment [3], the antiplasmodial selectivity index was determined as 345.
Consider `CC(C)=CCC/C(C)=C/Cc1c(C)[nH]c2ccccc2c1=O` [compound 9], for which the IC50 came out at 2.52 ± 0.48 µg/mL (≈ 8.53 µM) in experiment [1], 1.5 µg/mL (≈ 5.08 µM) in experiment [2], 0.07 ± 0.02 µg/mL (≈ 0.237 µM) in experiment [3] and 1.5 ± 0.31 µg/mL (≈ 5.08 µM) in experiment [4]. The antiplasmodial selectivity index in experiment [3] is given as 345.
Turning to `CC(C)=CCCC(C)=CCCC(C)=CCc1c(C)[nH]c2ccc3ccccc3c2c1=O` [compound 17], the IC50 in experiment [1] is > 10 µg/mL; in experiment [2], 0.8 µg/mL (≈ 1.93 µM); in experiment [3], 0.51 ± 0.18 µg/mL (≈ 1.23 µM); in experiment [4] it was ~10 µg/mL (≈ 24.2 µM).
In the same order, the values of `COc1ccc2[nH]c(C)c(CC=C(C)CCC=C(C)CCC=C(C)C)c(=O)c2c1` [compound 18] are 1.64 ± 0.47 µg/mL (≈ 4.17 µM), 1.6 µg/mL (≈ 4.07 µM), 0.2 ± 0.04 µg/mL (≈ 0.508 µM) and 1.15 ± 0.22 µg/mL (≈ 2.92 µM).
In the same order, the values of `CC(C)=CCCC(C)=CCCC(C)=CCc1c(C)[nH]c2cc3c(cc2c1=O)OCO3` [compound 19] are > 10 µg/mL, > 10 µg/mL, 0.42 ± 0.09 µg/mL (≈ 1.03 µM) and > 10 µg/mL.
